Key:
LX-2 cells = test: ROS production in LX-2 cells (L-012 or DCF-DA); assay type: cell-based, human; conditions: FIG. 1
Excerpt: (§1) In order to confirm an effect of the synthetic example compounds on ROS production from fibroblasts and specific substrate cells, ROS production was induced by stimulation of PMA (phorbol 12-myristate 13-acetate), TGF-β1, palmitate or high concentration-glucose, or the like for HL-60 cells (Korean Cell Line Bank), NHLF(normal human lung fibroblast, Lonza), LX-2 (human hepatic stellate cells, Sigma), ARPE19 (human retinal pigment epithelial cell, ATCC), KEL-FIB (Keloid fibroblast, ATCC) cells differentiated into neutrophil cells by treatment of DMSO, and the inhibitory effect of ROS production of the synthetic example compounds was observed under this condition.
(§2) NHLF (normal human lung fibroblast, Lonza), LX-2 (human hepatic stellate cells, Sigma), ARPE19 (human retinal pigment epithelial cell, ATCC), KEL-FIB (keloid fibroblast, ATCC) cells were suspended in a culture medium comprising 10% FBS and aliquoted in a 96 well plate, and then cultured under the condition of 5% CO2, 37° C. for 24 hours. The synthetic example compound was pretreated from 30 minutes to 1 hour, and then a ROS stimulus was treated to each well comprising cells and a drug. After additional culturing for 48 hours, the level of ROS production was confirmed by using L-012 or DCF-DA.

NHLF cells = test: ROS production in NHLF cells (L-012 or DCF-DA); assay type: cell-based, human; conditions: FIG. 1
Excerpt: as §1, §2

αSMA [1] = test: Expression of αSMA induced by TGF-β1 in ARPE19 cells (immunocytochemistry); assay type: cell-based, human; conditions: compound 5 μM, TGF-β1 10 ng/ml, FIG. 3a/3b
Excerpt: (§3) In order to confirm whether the synthetic example compound of the present invention affects differentiation of fibroblasts into myofibroblasts, the inhibitory effect of the synthetic example compound for increasing expression of αSMA (a biomarker for confirming differentiation into myofibroblasts) induced by TGF-β1 for HL-60 cells (Korean Cell Line Bank), HFF-1 (human foreskin fibroblast, ATCC), NHLF (normal human lung fibroblast, Lonza), LX-2 (human hepatic stellate cells, Sigma), ARPE19 (human retinal pigment epithelial cell, ATCC), KEL-FIB (Keloid fibroblast, ATCC) cells was to be observed.
Each cell was suspended in a DMEM medium comprising 10% FBS and aliquoted on a 4-well chamber slide (Nunc) at a concentration of 1×10^4 cells/well, and the synthetic example compound and TGF-β1(TGF 131, TGF-β are all same meanings) were treated to prepare cells to be used for confirmation of αSMA expression. […] After performing fixation with 4% paraformaldehyde for 10 minutes and permeabilization using 0.1% Triton x-100 for the cells, the process of treating a primary antibody (anti-αSMA Ab, 1:200, at 4° C. for 16 hours) and a secondary antibody (Alexa-594 conjugated Ab, 1:800, at a room temperature for 1 hour) against αSMA was progressed sequentially, and then the level of expression of αSMA was observed by using a fluorescence microscope. […]

αSMA [2] = test: Expression of αSMA induced by TGF-β1 in HFF-1 cells (immunocytochemistry); assay type: cell-based, human; conditions: compound 5 μM, TGF-β1 10 ng/ml, FIG. 3a/3b
Excerpt: as §3
(§4) Each cell was suspended in a DMEM medium comprising 10% FBS and aliquoted on a 4-well chamber slide (Nunc) at a concentration of 1×10^4 cells/well, and the synthetic example compound and TGF-β1(TGF 131, TGF-β are all same meanings) were treated to prepare cells to be used for confirmation of αSMA expression. […] After performing fixation with 4% paraformaldehyde for 10 minutes and permeabilization using 0.1% Triton x-100 for the cells, the process of treating a primary antibody (anti-αSMA Ab, 1:200, at 4° C. for 16 hours) and a secondary antibody (Alexa-594 conjugated Ab, 1:800, at a room temperature for 1 hour) against αSMA was progressed sequentially, and then the level of expression of αSMA was observed by using a fluorescence microscope.

αSMA [3] = test: Expression of αSMA induced by TGF-β1 in LX-2 cells (immunocytochemistry); assay type: cell-based, human; conditions: compound 5 μM, TGF-β1 10 ng/ml, FIG. 3a/3b
Excerpt: as §3, §4

αSMA [4] = test: Expression of αSMA induced by TGF-β1 in NHLF cells (immunocytochemistry); assay type: cell-based, human; conditions: compound 5 μM, TGF-β1 10 ng/ml, FIG. 3a/3b
Excerpt: as §3, §4

αSMA [5] = test: Expression of αSMA induced by TGF-β1 in KEL-FIB cells (immunocytochemistry); assay type: cell-based; conditions: compound 5 μM, TGF-β1 10 ng/ml, FIG. 3a/3b
Excerpt: as §3, §4

N27 cells = test: ROS production induced by MPP+ in N27 dopaminergic nerve cells (DCF-DA); assay type: cell-based, rat; conditions: compound 1 μM, 24 hours, FIG. 4
Excerpt: The high ROS level in nerve cells induces oxidized lipids, and this is known as an important element for nerve cell death. In order to confirm the effect of the synthetic example compound on ROS production from dopaminergic nerve cells, ROS production was induced by stimulation of MPP+(1-methyl-4-phenylptridinium) for N27 (rat dopaminergic neural cell, Sigma) cells, and the inhibitory effect of ROS production of the synthetic example compound was observed under this condition.
N27 cells were cultured in a RPMI medium comprising 10% FBS, […], and the cultured cells were aliquoted in a 6 well plate at a concentration of 5×10^3˜6×10^3 cells/well. The ROS production stimuli, MPP+ (1-methyl-4-phenylptridinium) and Synthetic example compound 3 (1 μM) were treated into the cells. In 24 hours after treating the synthetic example compound, by measuring fluorescence of each well using DCF-DA, the ROS production level was confirmed.

CTGF gene = CTGF gene expression induced by TGF-β1 in KEL-FIB keloid fibroblasts (qRT-PCR); assay type: cell-based; conditions: KEL-FIB cells; 5 μM or 10 μM compound; 2 ng/ml TGF-β1; 24 or 48 hours
Experimental: (§5) In order to confirm the effect on the process of producing extracellular matrix from keloid fibroblasts of the synthetic example compound, the expression change of an extracellular matrix formation promoting factor, CTGF and a representative extracellular matrix, collagen type I according to treatment of the Synthetic example 3 compound for KEL-FIB (keloid fibroblast) cells was analyzed at a gene level.
(§6) The KEL-FIB cell line was adapted in a DMEM comprising 2% FBS for 24 hours and then the Synthetic example 3 compound at a concentration of ? 5 μM or 10 μM was pretreated for 1 hour. For inducing expression of CTGF and collagen type I genes, 2 ng/ml TGF-β1 was treated and mRNA was extracted from the cells after 24 or 48 hours. The presence of mRNA and expression level of CTGF and collagen type 1 genes were confirmed by qRT-PCR (Quantitative real-time PCR).

collagen type I gene = test: Collagen type I gene expression induced by TGF-β1 in KEL-FIB keloid fibroblasts (qRT-PCR); assay type: cell-based; conditions: KEL-FIB cells; 5 μM or 10 μM compound; 2 ng/ml TGF-β1; 24 or 48 hours
Experimental: as §5, §6

IL-1β [6] = test: Expression of IL-1β induced by LPS in LX-2 cells (RT-PCR); assay type: cell-based, human; conditions: 30 min pretreatment, LPS 6 hours, FIG. 5
Experimental: (§7) After inoculating a 2×10^5 number of cells in a 6 well plate and culturing for 24 hours and then further culturing in a culture solution without serum for 16 hours, the Synthetic example 3 compound was pretreated according to each condition for 30 minutes and inflammation reaction was induced by LPS for 6 hours. The expression of IL-1β was confirmed by using RT-PCR. The total RNA was separated from the cells by using RNeasy mini kit (Qiagen) and from the separated RNA 2 ug, cDNA was synthesized by using PrimeScript™ II 1st strand cDNA synthesis kit (TaKaRa) and then PCR was performed by AccuPower® PCR PreMix (Bioneer) to amplify genes. The sequence for target primers is as follows. IL-1β (forward: 5′-[…]-3′, reverse: 5′-[…]-3′); GAPDH (forward: 5′-[…]-3′, reverse: 5′-[…]-3′); β-actin (forward: 5′-[…]-3′, reverse: 5′-[…]-3′). The PCR product was confirmed by electrophoresis in 1.5% agarose gel.

IL-1β [7] = test: Expression of IL-1β induced by LPS in NHLF cells (RT-PCR); assay type: cell-based, human; conditions: 30 min pretreatment, LPS 6 hours, FIG. 5
Experimental: as §7

**Q.** How did the “inhibition of ROS production induced by PMA” value (LX-2 cells) turn out when Oc1c2c(nn1-c1ccccn1)CN(Cc1ccccc1)CC2 [Synthetic example 3, 6-benzyl-2-(pyridin-2-yl)-4,5,6,7-tetrahydro-2H-pyrazolo[3,4-c]pyridin-3-ol] was run?
**A.** The value was “inhibited ROS production”.

**Q.** And the “inhibition of ROS production induced by PMA” value (NHLF cells)?
**A.** Its value is “inhibited ROS production”.

**Q.** And the “inhibition of increase of expression of αSMA induced by TGF-β1” value (from here on “inhibition of increase … by TGF-β1”) (αSMA [1])?
**A.** Its value is “significantly inhibited”.

**Q.** And the “inhibition of increase … by TGF-β1” value (αSMA [2])?
**A.** Its value is “significantly inhibited”.

**Q.** And the “inhibition of increase … by TGF-β1” value (αSMA [3])?
**A.** Its value is “significantly inhibited”.

**Q.** And the “inhibition of increase … by TGF-β1” value (αSMA [4])?
**A.** The value was “significantly inhibited”.

**Q.** And the “inhibition of increase … by TGF-β1” value (αSMA [5])?
**A.** Its value is “significantly inhibited”.

**Q.** What about the “inhibition of ROS production induced by MPP+” value (N27 cells) of the same compound?
**A.** Its value is “inhibiting production of ROS”.

**Q.** What about the “inhibition of expression of the CTGF gene” value (CTGF gene) of the same compound?
**A.** Its value is 76%.

**Q.** And the “inhibition of expression of the collagen type I gene” value (collagen type I gene)?
**A.** Its value is 75%.

**Q.** What about the “inhibition of IL-1β induced by LPS” value (IL-1β [6]) of the same compound?
**A.** The value was “effectively inhibited in a concentration-dependent manner”.

**Q.** What about the “inhibition of IL-1β induced by LPS” value (IL-1β [7]) of the same compound?
**A.** The value was “effectively inhibited in a concentration-dependent manner”.

— patent publication US12509438B2, “Pyrazole derivative” (Aptabio Therapeutics Inc., priority 2020, dated 2025)
